Data published in patent US20230322747A1, “OXADIAZOLE HDAC6 INHIBITORS AND USES THEREOF” (Eikonizo Therapeutics, Inc., priority 2022, published 2023).

What was measured:
[1] = biological target: Human HDAC8 (Homo sapiens (Human), UniProt Q9BY41); assay: Caliper endpoint assay for HDAC8 enzymatic activity; format: biochemical; settings: in vitro enzymatic
[2] = biological target: Human HDAC6 (Homo sapiens (Human), UniProt Q9UBN7); assay: HDAC6 enzymatic activity assay (Caliper endpoint or fluorogenic format); format: biochemical; settings: for IC50: in vitro enzymatic; for Selectivity (6 v 8) (fold): ratio of HDAC8 IC50/HDAC6 IC50
Sequence of Human HDAC6 (Q9UBN7 whole entry): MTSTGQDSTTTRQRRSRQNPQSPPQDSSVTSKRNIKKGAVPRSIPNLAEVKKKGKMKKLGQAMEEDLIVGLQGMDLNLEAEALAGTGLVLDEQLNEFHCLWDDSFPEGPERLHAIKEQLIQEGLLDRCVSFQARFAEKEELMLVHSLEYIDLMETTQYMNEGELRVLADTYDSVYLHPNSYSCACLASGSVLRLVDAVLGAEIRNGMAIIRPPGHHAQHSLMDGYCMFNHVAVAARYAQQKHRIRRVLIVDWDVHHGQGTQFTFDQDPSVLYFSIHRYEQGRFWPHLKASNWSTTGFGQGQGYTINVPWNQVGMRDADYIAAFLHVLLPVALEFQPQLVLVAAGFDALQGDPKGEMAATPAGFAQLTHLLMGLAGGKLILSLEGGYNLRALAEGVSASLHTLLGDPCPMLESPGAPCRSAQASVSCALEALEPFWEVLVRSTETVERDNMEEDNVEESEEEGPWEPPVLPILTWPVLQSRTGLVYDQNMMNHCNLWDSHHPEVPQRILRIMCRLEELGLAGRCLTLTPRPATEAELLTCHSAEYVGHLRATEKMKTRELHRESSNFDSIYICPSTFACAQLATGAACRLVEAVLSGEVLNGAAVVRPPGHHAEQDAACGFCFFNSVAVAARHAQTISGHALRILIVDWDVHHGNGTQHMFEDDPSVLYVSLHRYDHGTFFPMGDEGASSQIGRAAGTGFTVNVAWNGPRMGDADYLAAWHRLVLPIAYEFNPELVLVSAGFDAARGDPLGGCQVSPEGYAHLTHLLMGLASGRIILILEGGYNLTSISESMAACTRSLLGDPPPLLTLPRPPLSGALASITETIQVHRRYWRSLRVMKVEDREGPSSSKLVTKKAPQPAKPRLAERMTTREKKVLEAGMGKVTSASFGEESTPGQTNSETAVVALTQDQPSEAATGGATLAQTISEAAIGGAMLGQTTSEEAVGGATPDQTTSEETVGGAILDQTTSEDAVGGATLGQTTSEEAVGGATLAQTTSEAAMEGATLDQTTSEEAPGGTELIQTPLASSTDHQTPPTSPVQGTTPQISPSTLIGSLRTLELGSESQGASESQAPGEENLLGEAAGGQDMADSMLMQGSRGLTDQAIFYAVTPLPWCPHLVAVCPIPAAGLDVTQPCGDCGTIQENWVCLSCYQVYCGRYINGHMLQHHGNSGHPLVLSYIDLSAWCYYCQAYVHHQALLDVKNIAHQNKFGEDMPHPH

Sequence of Human HDAC8 (Q9BY41 whole entry): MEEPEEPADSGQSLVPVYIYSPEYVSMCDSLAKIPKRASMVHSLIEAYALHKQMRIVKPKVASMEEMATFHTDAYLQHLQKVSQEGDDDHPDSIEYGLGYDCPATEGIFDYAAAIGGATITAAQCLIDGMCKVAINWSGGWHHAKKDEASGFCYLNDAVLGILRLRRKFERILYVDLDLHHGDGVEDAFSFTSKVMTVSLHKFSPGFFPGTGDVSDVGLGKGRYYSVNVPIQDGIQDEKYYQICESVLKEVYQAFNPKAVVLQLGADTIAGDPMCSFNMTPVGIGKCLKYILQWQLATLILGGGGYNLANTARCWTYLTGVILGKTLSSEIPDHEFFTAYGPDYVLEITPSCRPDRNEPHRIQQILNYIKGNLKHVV

SMILES | IC50 [1] | IC50 [2] | Selectivity (6 v 8) (fold) [2]
FC(F)c1nnc(-c2ccc(COc3ccncc3)nc2)o1 [Compound 18, 2-(difluoromethyl)-5-(6-((pyridin-4-yloxy)methyl)pyridin-3-yl)-1,3,4-oxadiazole] | > 100000 nM | 1 to 100 nM | V (V: >1000)
Fc1cncc(OCc2ccc(-c3nnc(C(F)F)o3)cn2)c1 [Compound 19, 2-(Difluoromethyl)-5-(6-(((5-fluoropyridin-3-yl)oxy)methyl)pyridin-3-yl)-1,3,4-oxadiazole] | > 100000 nM | 1 to 100 nM | V (V: >1000)
FC(F)c1nnc(-c2ccc(COCC34CC5CC(CC(C5)O3)C4)nc2)o1 [Compound 20, 2-(6-(((2-oxaadamantan-1-yl)methoxy)methyl)pyridin-3-yl)-5-(difluoromethyl)-1,3,4-oxadiazole] | > 100000 nM | 1 to 100 nM | V (V: >1000)
N#Cc1cccc(OCc2ccc(-c3nnc(C(F)F)o3)cn2)c1 [Compound 26] | > 100000 nM | 1 to 100 nM | V (V: >1000)
N#CCc1cccc(OCc2ccc(-c3nnc(C(F)F)o3)cn2)c1 [Compound 27] | > 100000 nM | 1 to 100 nM | V (V: >1000)
FC(F)c1nnc(-c2ccc(COc3cccc4ocnc34)nc2)o1 [Compound 28] | > 100000 nM | 1 to 100 nM | V (V: >1000)
N#Cc1c(F)cccc1OCc1ccc(-c2nnc(C(F)F)o2)cn1 [Compound 29] | 10000 to 100000 nM | 1 to 100 nM | IV (IV: >100-1000)
N#Cc1cc(OCc2ccc(-c3nnc(C(F)F)o3)cn2)ccc1F [Compound 30] | > 100000 nM | 1 to 100 nM | V (V: >1000)
FC(F)c1nnc(-c2ccc(COc3ccc4ccncc4c3)nc2)o1 [Compound 31] | 1000 to 10000 nM | 1 to 100 nM | IV (IV: >100-1000)
FC(F)c1nnc(-c2ccc(COc3ccc4cnccc4c3)nc2)o1 [Compound 32] | 10000 to 100000 nM | 1 to 100 nM | V (V: >1000)
FC(F)c1nnc(-c2ccc(COc3cccc4cnccc34)nc2)o1 [Compound 35] | > 100000 nM | 1 to 100 nM | V (V: >1000)
FC(F)c1nnc(-c2ccc(COc3ccc4nccnc4c3)nc2)o1 [Compound 36] | > 100000 nM | 1 to 100 nM | V (V: >1000)
Cn1ncc2cc(OCc3ccc(-c4nnc(C(F)F)o4)cn3)ccc21 [Compound 37] | 10000 to 100000 nM | 1 to 100 nM | V (V: >1000)
C#Cc1cccc(OCc2ccc(-c3nnc(C(F)F)o3)cn2)c1 [Compound 39] | > 100000 nM | 1 to 100 nM | V (V: >1000)
C#Cc1ccccc1OCc1ccc(-c2nnc(C(F)F)o2)cn1 [Compound 41] | > 100000 nM | 1 to 100 nM | V (V: >1000)
N#Cc1ccccc1OCc1ccc(-c2nnc(C(F)F)o2)cn1 [Compound 42] | > 100000 nM | 1 to 100 nM | V (V: >1000)
N#CCc1ccc(OCc2ccc(-c3nnc(C(F)F)o3)cn2)cc1 [Compound 43] | 10000 to 100000 nM | 1 to 100 nM | IV (IV: >100-1000)
N#CCc1ccccc1OCc1ccc(-c2nnc(C(F)F)o2)cn1 [Compound 44] | > 100000 nM | 1 to 100 nM | V (V: >1000)
N#Cc1cc(F)ccc1OCc1ccc(-c2nnc(C(F)F)o2)cn1 [Compound 45] | > 100000 nM | 1 to 100 nM | V (V: >1000)
N#Cc1cccc(OCc2ccc(-c3nnc(C(F)F)o3)cn2)c1F [Compound 46] | > 100000 nM | 1 to 100 nM | V (V: >1000)
N#Cc1ccc(OCc2ccc(-c3nnc(C(F)F)o3)cn2)c(F)c1 [Compound 47] | 10000 to 100000 nM | 1 to 100 nM | V (V: >1000)
N#Cc1cccc(F)c1OCc1ccc(-c2nnc(C(F)F)o2)cn1 [Compound 48] | > 100000 nM | 1 to 100 nM | V (V: >1000)
N#Cc1ccc(F)c(OCc2ccc(-c3nnc(C(F)F)o3)cn2)c1 [Compound 49] | 10000 to 100000 nM | 1 to 100 nM | IV (IV: >100-1000)
N#Cc1ccc(F)cc1OCc1ccc(-c2nnc(C(F)F)o2)cn1 [Compound 50] | > 100000 nM | 1 to 100 nM | V (V: >1000)
N#Cc1cc(F)cc(OCc2ccc(-c3nnc(C(F)F)o3)cn2)c1 [Compound 51] | > 100000 nM | 1 to 100 nM | V (V: >1000)
N#Cc1ccc(OCc2ccc(-c3nnc(C(F)F)o3)cn2)cc1F [Compound 52] | > 100000 nM | 1 to 100 nM | V (V: >1000)
FC(F)c1nnc(-c2ccc(COc3ccc4ocnc4c3)nc2)o1 [Compound 53] | > 100000 nM | 1 to 100 nM | V (V: >1000)

SMILES | IC50 [1] | IC50 [2] | Selectivity (6 v 8) (fold) [2]
FC(F)c1nnc(-c2ccc(COc3ccc4c(c3)CCCC4)nc2)o1 [Compound 54] | > 100000 nM | 1 to 100 nM | V (V: >1000)
FC(F)c1nnc(-c2ccc(COc3cccc4nccnc34)nc2)o1 [Compound 55] | > 100000 nM | 1 to 100 nM | V (V: >1000)
FC(F)c1nnc(-c2ccc(COc3cccc4cncnc34)nc2)o1 [Compound 56] | > 100000 nM | 1 to 100 nM | V (V: >1000)
Cn1cnc2cc(OCc3ccc(-c4nnc(C(F)F)o4)cn3)ccc21 [Compound 57] | 10000 to 100000 nM | 1 to 100 nM | IV (IV: >100-1000)
Cn1ncc2c(OCc3ccc(-c4nnc(C(F)F)o4)cn3)cccc21 [Compound 58] | > 100000 nM | 1 to 100 nM | V (V: >1000)
Cc1noc2cc(OCc3ccc(-c4nnc(C(F)F)o4)cn3)ccc12 [Compound 59] | > 100000 nM | 1 to 100 nM | V (V: >1000)
Cc1noc2cccc(OCc3ccc(-c4nnc(C(F)F)o4)cn3)c12 [Compound 60] | 10000 to 100000 nM | 1 to 100 nM | V (V: >1000)
Cc1nc2cc(OCc3ccc(-c4nnc(C(F)F)o4)cn3)ccc2o1 [Compound 61] | 10000 to 100000 nM | 1 to 100 nM | IV (IV: >100-1000)
FC(F)c1nnc(-c2ccc(COc3ccc4ncccc4c3)nc2)o1 [Compound 62] | 10000 to 100000 nM | 1 to 100 nM | V (V: >1000)
FC(F)c1nnc(-c2ccc(COc3ccon3)nc2)o1 [Compound 64] | > 100000 nM | 100 to 1000 nM | V (V: >1000)
Cn1cc(OCc2ccc(-c3nnc(C(F)F)o3)cn2)cn1 [Compound 65] | > 100000 nM | 100 to 1000 nM | V (V: >1000)
Cn1nccc1OCc1ccc(-c2nnc(C(F)F)o2)cn1 [Compound 67] | > 100000 nM | 100 to 1000 nM | V (V: >1000)
FC(F)c1nnc(-c2ccc(COc3cnccn3)nc2)o1 [Compound 68] | > 100000 nM | 100 to 1000 nM | V (V: >1000)
CCn1ccc(OCc2ccc(-c3nnc(C(F)F)o3)cn2)n1 [Compound 69] | 10000 to 100000 nM | 100 to 1000 nM | IV (IV: >100-1000)
Cc1ccc(OCc2ccc(-c3nnc(C(F)F)o3)cn2)cn1 [Compound 70] | > 100000 nM | 100 to 1000 nM | V (V: >1000)
Cc1ccnc(OCc2ccc(-c3nnc(C(F)F)o3)cn2)c1 [Compound 71] | > 100000 nM | 1 to 100 nM | V (V: >1000)
Cc1cccc(OCc2ccc(-c3nnc(C(F)F)o3)cn2)n1 [Compound 72] | > 100000 nM | 100 to 1000 nM | V (V: >1000)
Cc1cccnc1OCc1ccc(-c2nnc(C(F)F)o2)cn1 [Compound 73] | > 100000 nM | 100 to 1000 nM | V (V: >1000)
Cc1cc(OCc2ccc(-c3nnc(C(F)F)o3)cn2)ccn1 [Compound 74] | > 100000 nM | 1 to 100 nM | V (V: >1000)
Cc1cnccc1OCc1ccc(-c2nnc(C(F)F)o2)cn1 [Compound 75] | 10000 to 100000 nM | 1 to 100 nM | IV (IV: >100-1000)
Fc1ccc(OCc2ccc(-c3nnc(C(F)F)o3)cn2)nc1 [Compound 76] | > 100000 nM | 1 to 100 nM | V (V: >1000)
Fc1cccnc1OCc1ccc(-c2nnc(C(F)F)o2)cn1 [Compound 77, 2-(Difluoromethyl)-5-[6-[(3-fluoro-2-pyridyl)oxymethyl]-3-pyridyl]-1,3,4-oxadiazole] | > 100000 nM | 1 to 100 nM | V (V: >1000)
CC(C)n1ccc(OCc2ccc(-c3nnc(C(F)F)o3)cn2)n1 [Compound 79] | > 100000 nM | 1 to 100 nM | V (V: >1000)
Cc1nc(Cl)cc(OCc2ccc(-c3nnc(C(F)F)o3)cn2)n1 [Compound 80] | 1000 to 10000 nM | 1 to 100 nM | III (III: >10-100)
FC(F)c1nnc(-c2ccc(COc3cccn4ccnc34)nc2)o1 [Compound 82] | > 100000 nM | 1 to 100 nM | V (V: >1000)
FC(F)c1nnc(-c2ccc(COc3ccc(C4CC4)nn3)nc2)o1 [Compound 83] | 10000 to 100000 nM | 100 to 1000 nM | IV (IV: >100-1000)
FC(F)c1nnc(-c2ccc(COc3ccc(C4CC4)cn3)nc2)o1 [Compound 85, 2-[6-[(5-cyclopropyl-2-pyridyl)oxymethyl]-3-pyridyl]-5-(difluoromethyl)-1,3,4-oxadiazole] | > 100000 nM | 100 to 1000 nM | V (V: >1000)
